{
  "source": "patent US20230384322A1",
  "about": "“COMPLEMENTOME ASSAY” (Complement Therapeutics Limited, priority 2020, published 2023)",
  "key": {"U87 GBM cells": {"test_system": "U87 GBM cells", "assay": "Real-time RT-PCR of CFH/FHL-1/IDO expression in cultured U87 GBM cells", "assay_type": "cell-based, human", "experimental": "(§1) FIGS. 13A to 13E. Indoleamine 2,3 dioxygenase 1 (IDO) non-metabolically increases complement factor H (CFH) levels in human glioblastoma (GBM). (13A) Flow chart for the microarray experimental design, data analysis, as well as validation of results. Real-time RT-PCR confirmation of IDO regulatory effects on CFH expression in cultured (13B) U87 or (13C) PDX43 GBM. Cells were exposed to a variety of conditions including transfection with IDO specific siRNA (20 nM) or scrambled control siRNA for 16 hours, treatment with or without 100 ng/mL human interferon-gamma (IFN-γ), treatment with or without the IDO enzyme inhibitor, BGB-5777 (1 uM), or IFNγ plus BGB-5777 for 24 hours. Quantitative RT-PCR was performed (n=3 reflecting one representative experiment from 4 experimental repeats). (13D) Quantitative RT-PCR analysis of IDO and CFH mRNA expression on IFNγ-stimulated U87 cells treated with CFH siRNA or scrambled control siRNA. Same experimental conditions as in [13B] (n=3/group reflecting one representative experiment from 3 experimental repeats). (13E) mRNA expression levels for human IDO, CFH, and CD3 were quantified and compared among intracranial PDX43 and patient-resected newly-diagnosed or recurrent intracranial human GBM (n=4-9/group). Intracranially-engrafted (ic.) PDX43 was isolated from humanized mice with or without treatment of CD4′ and CD8^+ T cell depleting antibodies between 14-21 days post-intracranial injection. ***, P<0.001; ND: not detectable, ns: not significant. All bar graphs represent mean±SEM.\nFIGS. 15A to 15H. Indoleamine 2,3 dioxygenase 1 (IDO) enhances the expression of both complement factor H (CFH) isoforms in human glioblastoma (GBM). (15A) Schematic representation of CFH transcript variants reflecting the full-length (CFH) and truncated (FHL-1) sequences. Pearson's correlation analysis of (15B) IDO and (15C) CD3E with CFH and FHL-1 using the TCGA GBM RNA-Seq dataset. (15D) Left panel: Western blot analysis of surgically-resected tumor tissue samples from both newly diagnosed GBM patients and recurrent GBM patients. Right panel: Protein expression of full-length and truncated CFH variants and IDO in IFNγ-stimulated U87 cells. Cells were treated with IFNγ and cultured in serum-free medium for 24 to 48 hours. Both cell lysates and cell culture supernatants were collected. The supernatants were concentrated with ultrafiltration and analyzed by Western blot along with cell lysate samples. One representative result is shown that reflects 4 experimental repeats. (15E) Time course analysis of IDO, CFH, FHL-1 mRNA expression after treatment with IFNγ in U87 (top row) and PDX43 (bottom row) GBM cells. The U87 cells were stimulated with 100 ng/ml human IFNγ and RNA lysates were extracted followed by quantitative RT-PCR analysis (n=4). (15F) Western blot of cell lysates and supernatants collected from the same experimental design as in top panel. Data from one representative experiment from 2 experiments are shown. (15G) Top panel: Western blot showing IDO protein levels in unmodified (Unmod.) as well as in CRISPR-Cas9 IDO-deleted (IDOKO) U87 cells. Unmod. U87 cells and IDOKO U87 cells were stimulated with 100 ng/mL human IFNγ for 24 hours. Protein lysates were collected from both untreated and IFNγ treated cells followed by Western blotting analysis; Lower panel: HPLC measurement of kynurenine (Kyn) and tryptophan (Trp) in Unmod. U87 and IDOKO U87 cells. (15H) Comparison of IDO, CFH, and FHL-1 mRNA expression induction in Unmod. and IDOKO U87 cells using quantified RT-PCR (n=3 per group that reflects 1 representative experiment after 2 repeats). ***, P<0.001; ND: not detectable. All bar graphs represent mean±SEM.\nThe microarray analysis was carried out at the Northwestern University NUSeq Core Facility using the human transcriptome analysis system, Clariom™ D Assay (Thermo Fisher Scientific). Briefly, 1×10^5 cells per well of U87 cells or IDO-OE U87 cells were seeded on 12-well plate. […]"}, "U87 cells": {"test_system": "U87 cells", "assay": "Western blotting of CFH, FHL-1 and IDO in U87 cell lysates and supernatants", "assay_type": "cell-based, human", "details": "serum-free medium 24 to 48 hours", "excerpt": "FIGS. 15A to 15H. Indoleamine 2,3 dioxygenase 1 (IDO) enhances the expression of both complement factor H (CFH) isoforms in human glioblastoma (GBM). (15A) Schematic representation of CFH transcript variants reflecting the full-length (CFH) and truncated (FHL-1) sequences. Pearson's correlation analysis of (15B) IDO and (15C) CD3E with CFH and FHL-1 using the TCGA GBM RNA-Seq dataset. (15D) Left panel: Western blot analysis of surgically-resected tumor tissue samples from both newly diagnosed GBM patients and recurrent GBM patients. Right panel: Protein expression of full-length and truncated CFH variants and IDO in IFNγ-stimulated U87 cells. Cells were treated with IFNγ and cultured in serum-free medium for 24 to 48 hours. Both cell lysates and cell culture supernatants were collected. The supernatants were concentrated with ultrafiltration and analyzed by Western blot along with cell lysate samples. One representative result is shown that reflects 4 experimental repeats. […] The U87 cells were stimulated with 100 ng/ml human IFNγ and RNA lysates were extracted followed by quantitative RT-PCR analysis (n=4). […] (15H) Comparison of IDO, CFH, and FHL-1 mRNA expression induction in Unmod. and IDOKO U87 cells using quantified RT-PCR (n=3 per group that reflects 1 representative experiment after 2 repeats). ***, P<0.001; ND: not detectable. […]"}, "[1]": {"test_system": "U87, PDX12, PDX39, and PDX43", "assay": "In vitro expression analysis of human CFH mRNA in different GBM cells with or without human IFNγ", "assay_type": "cell-based", "excerpt": "FIGS. 14A to 14I. Indoleamine 2,3 dioxygenase 1 (IDO) and complement factor H (CFH) mRNA levels positively correlate with T cell infiltration in patient-resected glioblastoma (GBM). (14A) mRNA expression levels for IDO and CFH in grade II (green; n=226), grade III (blue; n=249), and grade IV (GBM; red; n=172) glioma of the RNA Hi-Seq. Illumina dataset as analyzed in the cancer genome atlas (TCGA). Horizontal lines in the scatter plots represents mean±SEM. (14B) Pearson's correlation analysis for IDO and CFH mRNA levels within GBM and all-grade glioma. […] CFH mRNA levels were analyzed in U87 GBM cells co-cultured with either naïve or activated T cells or conditioned medium from activated T cells in the presence or absence of IFNγ-neutralizing antibodies. […]\nTotal RNA was extracted from freshly dissected tissue samples and cultured cells using the Trizol Reagent and PureLink RNA Mini Kit (Thermo Fisher Scientific), respectively. […] Quantitative real-time PCR was performed on a CFX96 Touch Real-Time PCR Detection System using the default program setting (Bio-Rad). […] The relative quantitation of gene expression was calculated using the 2-AACT method (29) with normalization of the target threshold cycle (CT) values to the internal housekeeping gene (GAPDH)."}, "PDX43 GBM cells": {"test_system": "PDX43 GBM cells", "assay": "Real-time RT-PCR of CFH/FHL-1/IDO expression in cultured PDX43 GBM cells", "assay_type": "cell-based, human", "details": "IFNγ time course", "experimental": "as §1, with “Same experimental conditions as in [13B] (n=3/group reflecting one representative experiment from 3 experimental repeats).” left out, “Intracranially-engrafted (ic.) PDX43 was isolated from humanized mice with or without treatment of CD4′ and CD8^+ T cell depleting antibodies between 14-21 days post-intracranial injection. ***, P<0.001; ND: not detectable, ns: not significant. All bar graphs represent mean±SEM.” left out\nFIGS. 15A to 15H. […] The supernatants were concentrated with ultrafiltration and analyzed by Western blot along with cell lysate samples. […] The U87 cells were stimulated with 100 ng/ml human IFNγ and RNA lysates were extracted followed by quantitative RT-PCR analysis (n=4). […]"}},
  "data": [
    {"molecule": "IDO-specific siRNA: human IDO-specific siRNA duplex (GE Health Dharmacon), SEQ ID NO:174 and 175 (chain 1 GCUUAUGACGCCUGUGUGAUU; chain 2 UCACACAGGCGUCAUAAGCUU; listed as RNA, chemistry not given here; listed as Homo sapiens)", "values": [
      {"measurement": "Effect on CFH expression (quantitative RT-PCR)", "setting": "U87 GBM cells; U87 cells, siRNA 20 nM, 16 hours", "result": "decreased expression of CFH"}
    ]},
    {"molecule": "IFNγ: human recombinant interferon-gamma (Shenandoah Biotechnology), T cell effector cytokine", "values": [
      {"measurement": "CFH and FHL-1 protein expression in cell culture supernatants (Western blot)", "setting": "U87 cells", "result": "higher"},
      {"measurement": "Effect on CFH mRNA expression in human GBM cells", "setting": "[1]", "result": "increased CFH expression"},
      {"measurement": "Earliest time IDO mRNA expression is detectable after treatment", "setting": "U87 GBM cells; 100 ng/ml human IFNγ time course", "result": 4, "unit": "h"},
      {"measurement": "IDO, CFH and FHL-1 mRNA expression induction", "setting": "U87 GBM cells; CRISPR-Cas9 IDO-deleted (IDOKO) U87 cells", "result": "no such increase"},
      {"measurement": "Effect on CFH expression (quantitative RT-PCR)", "setting": "U87 GBM cells; U87 cells, 100 ng/mL, 24 hours", "result": "increase of CFH expression"},
      {"measurement": "Earliest time full-length and truncated CFH variants increased after treatment", "setting": "U87 GBM cells; U87 cells, 100 ng/ml human IFNγ time course", "result": 12, "unit": "h"},
      {"measurement": "IDO, CFH and FHL-1 mRNA expression induction", "setting": "U87 GBM cells; unmodified U87 cells, 100 ng/mL", "result": "induced and upregulated"},
      {"measurement": "Earliest time full-length and truncated CFH variants increased after treatment", "setting": "PDX43 GBM cells", "result": 12, "unit": "h"}
    ]},
    {"molecule": "Complement Factor I (FI) (protein) KVTYTSQEDLVEKKCLAKKYTHLSCDKVFCQPWQRCIEGTCVCKLPYQCPKNGTAVCATNRRSFPTYCQQKSLECLHPGTKFLNNGTCTAEGKFSVSLKHGNTDSEGIVEVKLVDQDKTMFICKSSWSMREANVACLDLGFQQGADTQRRFKLSDLSINSTECLHVHCRGLETSLAECTFTKRRTMGYQDFADVVCYTQKADSPMDDFFQCVNGKYISQMKACDGINDCGDQSDELCCKACQGKGFHCKSGVCIPSQYQCNGEVDCITGEDEVGCAGFASVTQEETEILTADMDAERRRIKSLLPKLSCGVKNRMHIRRKRIVGGKRAQLGDLPWQVAIKDASGITCGGIYIGGCWILTAAHCLRASKTHRYQIWTTVVDWIHPDLKRIVIEYVDRIIFHENYNAGTYQNDIALIEMKKDGNKKDCELPRSIPACVPWSPYLFQPNDTCIVSGWGREKDNERVFSLQWGEVKLISNCSKFYGNRFYEKEMECAGTYDGSIDACKGDSGGPLVCMDANNVTYVWGVVSWGENCGKPEFPGVYTKVANYFDWISYHVGRPFISQYNV", "values": [
      {"measurement": "C3b breakdown in vitro (C3b incubated with FI and a fragment of cofactor CR1; time course followed by gel electrophoresis and GluC/SRM-MS)", "setting": "C3b", "result": "the formation of C3b fragments iC3b, C3f and C3c, and loss of intact C3b can be clearly detected over time"}
    ]}
  ]
}
